Laboratory results: patent US4061741A, “Physiological substances for intensifying the pharmacological effect of drugs” (Firma Servomed Arzei GmbH & Co. Pharma KG, priority 1974, dated 1977)
“Also recorded” adds a separate entry of the source. Structures can show the parent of a compound that is named as a salt.

Key:
CFI mice = assay: analgesic efficacy, writhing test, 60 minutes after oral application (Examples 5 to 8, Tables V to VIII); assay type: in vivo, mouse (CFI); conditions: for ED50: Mus musculus, 1 h, 60 mins.
Method: The analgesic efficacy of sodium salicylate, sodium salicylate + choline orotate in the molar ratio of 1:1 and sodium salicylate + choline orotate in the molar ratio of 1:2 was compared in the writhing test on mice and the ED50 determined after 1 hour.
As in Example 5, the ED50 of metamizol and metamizol + choline orotate in the molar ratio of 1:2 was determined after one hour by the writhing test.
The analgesic effects of codeine phosphate and codeine phosphate + choline orotate (molar ratio 1:1) are compared in the writhing test on mice.

guinea pigs [1] = assay: antitussive action, Turner cough test, citric acid aerosol, intravenous (Example 3, Table III); assay type: in vivo, guinea pig
Method: As with Example 2, the two substances laevopropoxyphene-HCl and laevopropoxyphene orotate were tested and compared with respect to their antitussive action. This time, however, intravenous applications were adopted.
% cough inhibition; the figures in brackets represent mg
propoxyphene-HCl in the 1-propoxyphene orotate.
320 guinea pigs (350 g); intravenous application. 7.5%

guinea pigs [2] = assay: antitussive efficacy, Turner cough test, citric acid aerosol, oral (Example 4, Table IV); assay type: in vivo; conditions: guinea pig, calculated with respect to 1-propoxyphene-HCl
Method: The antitussive efficacy of laevopropoxyphene-HCl, laevopropoxyphene orotate, laevopropoxyphene orotate + choline orotate (in the molar ratio 1:1) and of laevopropoxyphene-HCl + choline orotate (in the molar ratio of 1:2) was tested and compared after oral application on guinea pigs using the Turner cough test.
ED50 in mg/kg of guinea pig. Values calculated with respect
280 guinea pigs (350 g); oral application.
7.5% citric acid aerosol.

guinea pigs [3] = assay: antitussive efficacy, Turner cough test, citric acid aerosol, oral (Example 2, Table II); assay type: in vivo, guinea pig; conditions: for % cough inhibition: 30 minutes after oral application; for ED50: calculated according to the Gaussian Integral from the values of Table II, 30 minutes; for ED50 / antitussive efficacy (in words): oral; for antitussive efficacy (in words): in the dosages tested, guinea pigs
Method: The antitussive efficacy of laevopropoxyphene-HCl and laevopropoxyphene orotate was compared on guinea pigs, using the Turner cough test.
% cough inhibition 30 minutes after oral application.
70 guinea pigs, 250 g; 7.5% citric acid aerosol for 10
minutes in the respired air.
According to the Gaussian Integral, from the values shown in the Table, the ED50 can be calculated for: L-propoxyphene-HCl as being greater than 200 mg/kg of animal, 1-propoxyphene orotate 79 ± 8 mg/kg of animal.

blood proteins = assay: drug not bonded to serum protein, ultrafiltration of human serum with and without orotic acid; assay type: in vitro ADME; conditions: in the presence of orotic acid
Method: 1 ml of this serum is then ultrafiltered at the same temperature, accompanied by agitation. (Filter permeability up to a molecular weight of approx. 10,000). The radioactivity contained in this ml is measured. The measured value, found […], indicates the percentage of drug which is not bonded to protein. The same test is repeated but in the presence of non-radioactively marked orotic acid in a molar ratio to the marked drug of for example 1:1 or 1:2. The percentage of free drug is calculated similarly as described above. If the second measured value is higher than the first, then this is a measure of improved availability of the drug. This increased availability is confirmed in experiments with animals.

NMRI mice = assay: analgesic efficacy, writhing syndrome, oral (Example 1, Table I); assay type: in vivo, mouse (NMRI, female)
Method: Dextropropoxyphene-HCl, dextropropolyphenorotate and dextropropoxyphene orotate + orotic acid (in the molar ratio 1:1) were tested on mice to determine their analgesic efficacy after oral administration following the "writhing" syndrome. The ED50 was determined after 15 minutes, 30 minutes, 60 minutes and 180 minutes.
ED50 in […] of mouse (calculated with respect to the
dextropropoxyphene-HCl);
oral application, writhing syndrome, 800 NMRI mice, […]

## O=C([O-])c1ccccc1O.[Na+] [Sodium salicylate]
CFI mice; oral, writhing test, CFI mice (18 - 20 g), Table V
  ED50: 580 mg/kg

## CCC(=O)O[C@@](Cc1ccccc1)(c1ccccc1)[C@@H](C)CN(C)C [Laevopropoxyphene orotate]
Guinea pigs [1]; 1 (0.758) mg/kg, 5 min., bracket = mg propoxyphene-HCl
  % cough inhibition: 17.5%
Guinea pigs [1]; 1 (0.758) mg/kg, 10 min.
  % cough inhibition: 24%
Guinea pigs [1]; 1 (0.758) mg/kg, 15 min.
  % cough inhibition: 30%
Guinea pigs [1]; 1 (0.758) mg/kg, 20 min.
  % cough inhibition: 23%
Guinea pigs [1]; 3 (2.27) mg/kg, 5 min.
  % cough inhibition: 31.0%
Guinea pigs [1]; 3 (2.27) mg/kg, 10 min.
  % cough inhibition: 30%
Guinea pigs [1]; 3 (2.27) mg/kg, 15 min.
  % cough inhibition: 36%
Guinea pigs [1]; 3 (2.27) mg/kg, 20 min.
  % cough inhibition: 47%
Guinea pigs [1]; 5 (3.79) mg/kg, 5 min.
  % cough inhibition: 40.5%
Guinea pigs [1]; 5 (3.79) mg/kg, 10 min.
  % cough inhibition: 48%
Guinea pigs [1]; 5 (3.79) mg/kg, 15 min.
  % cough inhibition: 53%
Guinea pigs [1]; 5 (3.79) mg/kg, 20 min.
  % cough inhibition: 59%
Guinea pigs [1]; 7.5 (5.69) mg/kg, 5 min.
  % cough inhibition: 52.0%
Guinea pigs [1]; 7.5 (5.69) mg/kg, 10 min.
  % cough inhibition: 59%
Guinea pigs [1]; 7.5 (5.69) mg/kg, 15 min.
  % cough inhibition: 63%
Guinea pigs [1]; 7.5 (5.69) mg/kg, 20 min.
  % cough inhibition: 62%
Guinea pigs [1]; guinea pigs
  antitussive efficacy (in words): superior efficacy
Guinea pigs [2]; 1 hr., listed as Laevopropoxyphene crotate, 60 min
  ED50: 103 mg/kg
Guinea pigs [2]; 3 hr., listed as Laevopropoxyphene crotate, 180 min
  ED50: 68 mg/kg
Guinea pigs [3]; 25 mg/kg
  % cough inhibition: 6%
Guinea pigs [3]; 50 mg/kg
  % cough inhibition: 31%
Guinea pigs [3]; 75 mg/kg
  % cough inhibition: 47%
Guinea pigs [3]; 100 mg/kg
  % cough inhibition: 56%
Guinea pigs [3]; listed as 1-propoxyphene orotate
  ED50: 79 ± 8 mg/kg of animal
Guinea pigs [3]
  antitussive efficacy (in words): outstanding antitussive efficacy

## CCCCC1C(=O)N(c2ccccc2)N(c2ccccc2)C1=O [Phenyl butazone]
Blood proteins
  amount of drug in the ultrafiltrate (in words): not found in increased quantity in the ultrafiltrate; also recorded: no more drug is found
CFI mice; oral, writhing syndrome, CFI mice, female, 20 to 22 g, Table VIII
  ED50: 130 ± 45 mg/kg
CFI mice; in the presence of orotic acid
  analgesia in animal experiments (in words): no reinforced analgesia; also recorded: no reinforced pharmacological action

## CCC(=O)O[C@@](Cc1ccccc1)(c1ccccc1)[C@@H](C)CN(C)C [Laevopropoxyphene-HCl]
Guinea pigs [1]; 2 mg/kg, 5 min.
  % cough inhibition: 11%
Guinea pigs [1]; 2 mg/kg, 10 min.
  % cough inhibition: 0%
Guinea pigs [1]; 2 mg/kg, 15 min.
  % cough inhibition: 0%
Guinea pigs [1]; 5 mg/kg, 5 min.
  % cough inhibition: 24%
Guinea pigs [1]; 5 mg/kg, 10 min.
  % cough inhibition: 0%
Guinea pigs [1]; 5 mg/kg, 15 min.
  % cough inhibition: 0%
Guinea pigs [1]; 7.5 mg/kg
  toxicity remark in the cough inhibition table: subtoxic
Guinea pigs [2]; 1 hr., listed as Laevorpopoxyphene-HCl, 60 min
  ED50: 250 mg/kg
Guinea pigs [2]; 3 hr., listed as Laevorpopoxyphene-HCl, 180 min
  ED50: 195 mg/kg
Guinea pigs [3]; 25 mg/kg
  % cough inhibition: 0%
Guinea pigs [3]; 50 mg/kg
  % cough inhibition: 8%
Guinea pigs [3]; 75 mg/kg
  % cough inhibition: 0%
Guinea pigs [3]; 100 mg/kg
  % cough inhibition: 11%
Guinea pigs [3]; 150 mg/kg
  % cough inhibition: 0%
Guinea pigs [3]; 200 mg/kg
  % cough inhibition: 9%
Guinea pigs [3]; listed as L-propoxyphene-HCl
  ED50: greater than 200 mg/kg of animal
Guinea pigs [3]
  antitussive efficacy (in words): no antitussive efficacy

## COc1ccc2c3c1O[C@H]1[C@@H](O)C=C[C@H]4[C@@H](C2)N(C)CC[C@@]341 [Codeine phosphate]
CFI mice; oral, writhing syndrome, CFI mice, female, 20 to 22 g, Table VII
  ED50: 82 mg/kg

## Cc1c(N(C)CS(=O)(=O)O)c(=O)n(-c2ccccc2)n1C [Metamizol]
CFI mice; oral, writhing test, CFI mice (18 to 20 g), Table VI
  ED50: 380 mg/kg
CFI mice; metamizol, writhing test, mice, oral
  analgesic efficacy on addition of an orotic acid salt (in words): reinforcement of the analgesic efficacy

## CCC(=O)O[C@](Cc1ccccc1)(c1ccccc1)[C@H](C)CN(C)C [Dextropropoxyphene orotate]
NMRI mice
  analgesic efficacy (in words): substantially more intensely effective as an analgesic than dextropropoxyphene-HCl by itself
